This note sets out measurements from US9233982B2, “Spiro tetrahydro—benzothiophen derivatives useful for the treatment neurodegenerative diseases” (Ares Trading S.A., priority 2012, dated 2016).

Structures are written as SMILES. Counter-ions that a name gives are not always drawn.

Experiment [1] has as its target T1, BACE-1 (Homo sapiens, UniProt P56817). The experiment can be described thus: LanthaScreen BACE1 biochemical assay (TR-FRET).
Description: Biochemical Assay to Assess Compounds for Inhibition of BACE-1
The LanthaScreen™ BACE1 assay kit from Invitrogen (Catalogue number PV4748) was used as the primary assay in the screening cascade.
Briefly, the test compound was incubated with the enzyme and substrate for 1 hour at room temperature in a reaction volume of 15 μl and then 5 nM terbium labelled anti-biotin antibody was added to stop the reaction and the solution incubated for a further 1 hour at room temperature. The microplate was read on an Envision plate reader fitted with a photometric 340 nm excitation filter and the amount of substrate that had been cleaved was represented by the TR-FRET ratio, calculated by dividing the Fluorescein emission signal (520 nm) by the Terbium emission signal (495 nm).
Experiment [2] concerns the target T1, BACE-1. Description: HTRF cell based assay, Aβ1-40 peptide secreted by recombinant HEK293 cells. On the set-up: endogenous in cells; host or cells: recombinant HEK293 cells engineered to over-produce APP. The following applies: Aβ1-40 secretion, recombinant HEK293 cells producing APP, overnight treatment; read-out: Cellular assay EC50 Ranges. The procedure:
The cell based assay used to support the program utilized HTRF assay reagents from Cisbio (Catalogue number 62B40PEB) to quantify the amount of Aβ1-40 peptide secreted by recombinant HEK293 cells. The cells were engineered to produce high quantities of APP, the precursor for Aβ1-40 peptide, under hygromycin selection pressure. Briefly, cells were plated into 384-well microplates and allowed to settle for 2 hours prior to compound addition. Following overnight treatment with compound, the media containing secreted peptide was transferred into a low volume assay plate for quantification with HTRF immunoassay reagents. Adhering to the manufacturers protocol for quantification, a TR-FRET signal is obtained in the presence of the Aβ1-40 peptide following addition of a cryptate conjugated antibody and an XL665 conjugated antibody, each raised to a different epitope of the Aβ1-40 peptide. A low FRET signal is obtained when cells are treated with compounds that inhibit APP cleavage and peptide secretion.

T1 sequence (P56817 46-501): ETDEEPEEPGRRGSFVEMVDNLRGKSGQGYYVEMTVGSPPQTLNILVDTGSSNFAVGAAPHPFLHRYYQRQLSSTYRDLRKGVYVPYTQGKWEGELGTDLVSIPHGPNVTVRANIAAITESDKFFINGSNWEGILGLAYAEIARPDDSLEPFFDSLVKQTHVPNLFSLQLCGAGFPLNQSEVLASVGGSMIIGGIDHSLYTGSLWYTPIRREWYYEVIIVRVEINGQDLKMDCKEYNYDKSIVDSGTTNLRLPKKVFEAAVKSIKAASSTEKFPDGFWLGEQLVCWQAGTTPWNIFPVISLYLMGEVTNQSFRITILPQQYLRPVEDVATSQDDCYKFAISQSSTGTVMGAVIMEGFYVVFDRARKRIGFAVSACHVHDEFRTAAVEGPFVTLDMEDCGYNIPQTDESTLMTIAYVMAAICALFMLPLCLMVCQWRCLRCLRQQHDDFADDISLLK

`COc1ccc(-c2cccc(-c3cc4c(s3)CCCC43CCSC(N)=N3)c2)cc1` (stereo not shown) [Example 33] had an IC50 against BACE-1 [1] of 1 to 5 µM. Also, at BACE-1 [2], the EC50 lay in the range of 5 to 50 µM.

At BACE-1 [1], `N#Cc1cc(Cl)cc(-c2cc3c(s2)CCCC32CCSC(N)=N2)c1` (stereo not shown) [Example 34] came in with an IC50 of 1 to 5 µM. For the same molecule, at BACE-1 [2], the EC50 lay in the range of 1 to 5 µM.

For the molecule `Cc1cc(C#N)cc(-c2cc3c(s2)CCCC32CCSC(N)=N2)c1` (stereo not shown) [Example 35], the half-maximal inhibitory concentration (IC50) at BACE-1 [1] fell in the range of 1 to 5 µM. The EC50 at BACE-1 [2] was 1 to 5 µM.

With `NC1=NC2(CCCc3sc(-c4cccc(-c5ccccn5)c4)cc32)CCS1` (stereo not shown) [Example 36], the IC50 at BACE-1 [1] lay in the range of 5 to 65 µM. Also, the concentration for a half-maximal effect (EC50) on BACE-1 [2] lay within 5 to 50 µM.

Molecule `CC(C)(C)c1cccc(-c2cc3c(s2)CCCC32CCSC(N)=N2)c1` (stereo not shown) [Example 37] showed a concentration for half-maximal inhibition (IC50) against BACE-1 [1] of 5 to 65 µM. Moreover, the concentration for a half-maximal effect (EC50) on BACE-1 [2] lay in the range of 5 to 50 µM.

Molecule `COc1cccc(-c2cccc(-c3cc4c(s3)CCCC43CCSC(N)=N3)c2)c1` (stereo not shown) [Example 38] yielded a concentration for half-maximal inhibition (IC50) against BACE-1 [1] of 1 to 5 µM. The EC50 on BACE-1 [2] lay in the range of 5 to 50 µM.

`NC1=NC2(CCCc3sc(-c4cccc(CC(F)(F)F)c4)cc32)CCS1` (stereo not shown) [Example 39]: on BACE-1 [1], the IC50 was in the range of 5 to 65 µM. Also, the concentration for a half-maximal effect (EC50) on BACE-1 [2] was 5 to 50 µM.

As to `NC1=NC2(CCCc3sc(NC(=O)c4ccc(Br)cn4)cc32)CCS1` (stereo not shown) [Example 40], the 50% inhibitory concentration (IC50) on BACE-1 [1] lay in the range of 5 to 65 µM. Also, the half-maximal effective concentration (EC50) on BACE-1 [2] lay in the range of 5 to 50 µM.

On to `COc1cccc(-c2cccc(-c3cc4c(s3)CC(C)(C)CC43CCSC(N)=N3)c2)c1` (stereo not shown) [Example 41, 2-(3′-methoxybiphenyl-3-yl)-6,6-dimethyl-5′,6,6′,7-tetrahydro-5H-spiro[benzo[b]thiophene-4,4′-[1,3]thiazin]-2′-amine, Formate Salt], for which the 50% inhibitory concentration (IC50) at BACE-1 [1] fell in the range of 1 to 5 µM. Moreover, the concentration for a half-maximal effect (EC50) at BACE-1 [2] lay in the range of 5 to 50 µM.

On BACE-1 [1], `COc1ccc(-c2cccc(-c3cc4c(s3)CC(C)(C)CC43CCSC(N)=N3)c2)cc1` (stereo not shown) [Example 42] displayed a 50% inhibitory concentration (IC50) of 1 to 5 µM. In addition, the 50% effective concentration (EC50) at BACE-1 [2] is 5 to 50 µM.

Turning to `CC1(C)CCc2sc(-c3cccc(C(F)(F)F)c3)cc2C12CCSC(N)=N2` (stereo not shown) [Example 46, 5,5-dimethyl-2-(3-(trifluoromethyl)phenyl)-5′,6,6′,7-tetrahydro-5H-spiro[benzo[b]thiophene-4,4′-[1,3]thiazin]-2′-amine], at BACE-1 [1], the IC50 was in the range of 5 to 65 µM. At BACE-1 [2], the EC50 lay within 5 to 50 µM.

Turning to `CN1C(=O)C2(CCCc3sc(-c4cccc(C#N)c4)cc32)N=C1N` (stereo not shown) [Example 49, 3-(2′-amino-1′-methyl-5′-oxo-1′,5′,6,7-tetrahydro-5H-spiro[benzo[b]thiophene-4,4′-imidazole]-2-yl)benzonitrile], the 50% inhibitory concentration (IC50) at BACE-1 [1] is less than 1 µM. For the same molecule, the EC50 on BACE-1 [2] was not above 1 µM.

In the case of `CN1C(=O)C2(CCCc3sc(-c4cccnc4)cc32)N=C1N` (stereo not shown) [Example 52], on BACE-1 [1], the IC50 was 5 to 65 µM. The concentration giving a half-maximal response (EC50) at BACE-1 [2] is 1 to 5 µM.

The molecule `CN1C(=O)C2(CCCc3sc(-c4cccc(OC(F)(F)F)c4)cc32)N=C1N` (stereo not shown) [Example 53] came in with an IC50 against BACE-1 [1] of 1 to 5 µM. For the same molecule, the EC50 on BACE-1 [2] fell in the range of 5 to 50 µM.

With `CN1C(=O)C2(CCCc3sc(-c4cccc(C(F)(F)F)c4)cc32)N=C1N` (stereo not shown) [Example 54], at BACE-1 [1], the IC50 is less than 1 µM. In addition, the EC50 on BACE-1 [2] is 1 to 5 µM.

With `COc1cc(C#N)cc(-c2cc3c(s2)CCCC32N=C(N)N(C)C2=O)c1` (stereo not shown) [Example 55], the half-inhibitory concentration (IC50) on BACE-1 [1] fell in the range of 1 to 5 µM. The half-maximal effective concentration (EC50) at BACE-1 [2] lay within 1 to 5 µM.

As to `CN1C(=O)C2(CCCc3sc(-c4cccc(Cl)c4)cc32)N=C1N` (stereo not shown) [Example 56], on BACE-1 [1], the IC50 was in the range of 1 to 5 µM. Moreover, at BACE-1 [2], the half-maximal effective concentration (EC50) fell in the range of 1 to 5 µM.

Take `N#Cc1cccc(-c2cc3c(s2)CCCC32N=C(N)N(Cc3ccccc3)C2=O)c1` (stereo not shown) [Example 57, 3-(2′-amino-1′-benzyl-5′-oxo-1′,5′,6,7-tetrahydro-5H-spiro[benzo[b]thiophene-4,4′-imidazole]-2-yl)benzonitrile]: the concentration for half-maximal inhibition (IC50) against BACE-1 [1] is less than 1 µM. Further, the EC50 on BACE-1 [2] lay within 5 to 50 µM.

Molecule `CN1OC2(CCCc3sc(-c4cccc(C(F)(F)F)c4)cc32)N=C1N` (stereo not shown) [Example 58, 2′-methyl-2-(3-(trifluoromethyl)phenyl)-6,7-dihydro-2′H,5H-spiro[benzo[b]thiophene-4,5′-[1,2,4]oxadiazol]-3′-amine] came in with an IC50 at BACE-1 [1] of 1 to 5 µM. Besides, the 50% effective concentration (EC50) on BACE-1 [2] fell in the range of 5 to 50 µM.

The molecule `NC1=NC2(CCCc3sc(-c4cccc(C(F)(F)F)c4)cc32)ON1Cc1ccccc1` (stereo not shown) [Example 59] displayed a half-maximal inhibitory concentration (IC50) on BACE-1 [1] of 1 to 5 µM. In addition, the 50% effective concentration (EC50) at BACE-1 [2] was in the range of 5 to 50 µM.

`N#Cc1cccc(-c2cc3c(s2)CCCC32N=C(N)N(Cc3ccccc3)O2)c1` (stereo not shown) [Example 60] showed an IC50 at BACE-1 [1] of less than 1 µM. Further, the EC50 on BACE-1 [2] lay within 5 to 50 µM.

In the case of `NC1=NC2(CCCc3cc(-c4cccc(-c5ccccc5)c4)sc32)CCS1` (stereo not shown) [Example 61], the half-maximal inhibitory concentration (IC50) at BACE-1 [1] fell in the range of 1 to 5 µM. The EC50 on BACE-1 [2] was in the range of 5 to 50 µM.

On to `N#Cc1cccc(-c2cc3c(s2)C2(CCC3)CCSC(N)=N2)c1` (stereo not shown) [Example 62], for which, on BACE-1 [1], the IC50 lay within 5 to 65 µM. Further, the half-maximal effective concentration (EC50) on BACE-1 [2] lay in the range of 5 to 50 µM.
